Source: US10227331B2 (priority 2015, dated 2019)

How the values were obtained:
VIM-1 = VIM-1 (Pseudomonas aeruginosa (strain ATCC 15692 / DSM 22644 / CIP 104116 / JCM 14847 / LMG 12228 / 1C / PRS 101 / PAO1), UniProt A0A0F7KYQ8); assay: biochemical; settings: CCF2-FA substrate, 2 hours at 25° C
Protocol: Enzyme Activity: Determination of IC50
The Class B enzyme activities were measured in the presence of the test inhibitor in a fluorescence assay against a commercially available substrate consisting of a cephalosporin core linking 7-hydroxycoumarin to fluorescein (CCF2-FA). […] In a 384-well microplate, the test inhibitor was incubated with the metallo-β-lactamase enzyme and the substrate for 2 hours at 25° C. […] The IC50 value was determined from semi-logarithmic plots of enzyme inhibition versus inhibitor concentration, with a curve generated using a 4-parameter fit.

[1] = test system: Escherichia coli expressing NDM-1 (CLB30005, CLB30016); format: cell-based; settings: with imipenem 1 μg/ml, 95% inhibition of bacterial growth; for Escherichia coli MITC95: NDM-1 (CLB30016)
Protocol: (§1) Antibiotic Potentiation Activity: Determination of Synergistic Concentration
(§2) The bacterial strains tested included the clinical strains Escherichia coli expressing NDM-1 (CLB30005, CLB30016), Serratia marcescens expressing IMP-1 (CL5741), and Klebsiella pneumoniae expressing VIM-1 (IHMA599644). Inhibitor activity was measured in the presence and absence of imipenem in a 384-well microplate.
(§3) The clinical strains CLB30016, CL5741 and IHMA599644 were grown on trypticase soy agar containing 5% sheep's blood. The bacteria on agar plates were incubated at 35° C. with humidity overnight. The following day, individual colonies from each clinical strain were picked and resuspended in 5 ml saline to attain an OD600 of […], for CLB30016, CL5741 and IHMA599644, respectively. These were further diluted 1:100 into 1.1×CAMHB and used to inoculate the test wells as described below.
(§4) Imipenem in 10 mM 3-(N-morpholino)propanesulfonic acid (MOPS, pH 7) was stored in single use aliquots at −80° C. […] On the day of the assay, 4 μl of antibiotic was added to 45 ul of bacteria followed by 1 μl of test compound and mixed by pipetting and with an orbital shaker. The concentration of antibiotic used in the assay was 1 μg/ml. Microplates were covered and incubated at 35° C. for 22 hours to 24 hours. At the end of the incubation, absorbance was determined using a spectrophotometer.
(§5) For example, in general, the compounds of Examples 1-379 were determined to restore susceptibility to imipenem for one or more of the test organisms at concentrations of 100 μM or less.

[2] = test system: Klebsiella pneumoniae expressing VIM-1 (IHMA599644); format: cell-based; settings: with imipenem 1 μg/ml, 95% inhibition of bacterial growth; for Klebsiella pneumoniae MITC95: VIM-1 (IHMA599644)
Protocol: as §1, §2, §3, §4, §5

[3] = test system: Serratia marcescens expressing IMP-1 (CL5741); format: cell-based; settings: with imipenem 1 μg/ml, 95% inhibition of bacterial growth; for Serratia marcescens MITC95: IMP-1 (CL5741)
Protocol: as §1, §2, §3, §4, §5

[4] = test system: P. aeruginosa expressing IMP-1, efflux+ (MB9798); format: cell-based, Pseudomonas aeruginosa; settings: for P. aeruginosa expressing IMP-1, efflux+ (MB9798) MITC95: imipenem at 2 μg/mL, in the presence of a class A, C, D serine β-lactamase inhibitor closely related to relebactam; for Efflux ratio: ratio MITC95 PA_9798/MITC95 PA_9799
Description: (§6) The strain background is Pseudomonas aeruginosa PAO1.

[5] = test system: P. aeruginosa expressing IMP-1, efflux− (MB9799); assay: Efflux: concentration of MBL inhibitor which restores susceptibility to imipenem; format: cell-based, Pseudomonas aeruginosa; settings: imipenem at 2 μg/mL, in the presence of a class A, C, D serine β-lactamase inhibitor closely related to relebactam
Description: as §6

SMILES | IC50 (VIM-1) | Escherichia coli expressing NDM-1 (CLB30016) MITC95 [1] | Klebsiella pneumoniae expressing VIM-1 (IHMA599644) MITC95 [2] | Serratia marcescens expressing IMP-1 (CL5741) MITC95 [3] | P. aeruginosa expressing IMP-1, efflux+ (MB9798) MITC95 [4] | Efflux ratio [4] | P. aeruginosa expressing IMP-1, efflux− (MB9799) MITC95 [5] | Escherichia coli MITC95 [1] | Klebsiella pneumoniae MITC95 [2] | Serratia marcescens MITC95 [3]
Nc1nc2cc(-c3ccc([S+]([O-])C4CNC4)c(S(N)(=O)=O)c3-c3nn[nH]n3)ccc2[nH]1 (stereo not shown) [Example 11, 3-(2-amino-1H-benzo[d]imidazol-5-yl)-6-(azetidin-3-ylsulfinyl)-2-(2H-tetrazol-5-yl)benzenesulfonamide] | 1.86 nM | 0.3906 µM | 0.3906 µM | 0.7813 µM | 3.125 µM | 8.00 | 0.3906 µM |  |  | 
Nc1nc2ccc(-c3ccc(S(=O)(=O)C4CCNCC4)c(S(N)(=O)=O)c3-c3nn[nH]n3)cc2[nH]1 [Example 41, 3-(2-amino-3H-benzo[d]imidazol-5-yl)-6-(piperidin-4-ylsulfonyl)-2-(2H-tetrazol-5-yl)benzenesulfonamide] | 0.171 nM | 1.563 µM | 1.563 µM | 1.563 µM | 3.125 µM | 4.00 | 0.7813 µM |  |  | 
Nc1cnccc1-c1ccc(S(=O)(=O)C2CNC2)c(S(N)(=O)=O)c1-c1nnn[nH]1.O=C(O)C(F)(F)F [Example 105, 3-((4-(3-aminopyridin-4-yl)-2-sulfamoyl-3-(1H-tetrazol-5-yl)phenyl)sulfonyl)azetidin-1-ium 2,2,2-trifluoroacetate] | 0.759 nM | 3.125 µM | 3.125 µM | 1.563 µM | 3.125 µM | 2.00 | 1.563 µM |  |  | 
CNc1ncc(-c2ccc(S(=O)(=O)C3CNC3)c(S(N)(=O)=O)c2-c2nnn[nH]2)cn1.O=C(O)C(F)(F)F [Example 106, 3-((4-(2-(methylamino)pyrimidin-5-yl)-2-sulfamoyl-3-(1H-tetrazol-5-yl)phenyl)sulfonyl)azetidin-1-ium 2,2,2-trifluoroacetate] | 1.59 nM | 12.5 µM | 6.25 µM | 3.125 µM | 6.25 µM | 4.00 | 1.563 µM |  |  | 
NCc1cncc(-c2ccc(S(=O)(=O)C3CNC3)c(S(N)(=O)=O)c2-c2nnn[nH]2)c1.O=C(O)C(F)(F)F [Example 107, 3-((4-(5-(aminomethyl)pyridin-3-yl)-2-sulfamoyl-3-(1H-tetrazol-5-yl)phenyl)sulfonyl)azetidin-1-ium 2,2,2-trifluoroacetate] | 28.3 nM | 1.563 µM | 3.125 µM | 6.25 µM | 12.5 µM | 4.00 | 3.125 µM |  |  | 
NS(=O)(=O)c1c(S(=O)(=O)C2CNC2)ccc(C2=CC3C=NNC3N=C2)c1-c1nnn[nH]1.O=C(O)C(F)(F)F (stereo not shown) [Example 108, 3-((4-(3a,7a-dihydro-1H-pyrazolo[3,4-b]pyridin-5-yl)-2-sulfamoyl-3-(1H-tetrazol-5-yl)phenyl)sulfonyl)azetidin-1-ium 2,2,2-trifluoroacetate] | 0.612 nM | 6.25 µM | 6.25 µM | 3.125 µM | 25 µM | 15.99 | 1.563 µM |  |  | 
NS(=O)(=O)c1c(S(=O)(=O)C2CNC2)ccc(-c2ccc(O)nc2)c1-c1nnn[nH]1.O=C(O)C(F)(F)F [Example 109, 3-((4-(6-hydroxypyridin-3-yl)-2-sulfamoyl-3-(1H-tetrazol-5-yl)phenyl)sulfonyl)azetidin-1-ium 2,2,2-trifluoroacetate] | 1.44 nM | 0.7813 µM | 3.125 µM | 1.563 µM | 12.5 µM | 8.00 | 1.563 µM |  |  | 
NS(=O)(=O)c1c(S(=O)(=O)C2CNC2)ccc(-c2ccc(CO)nc2)c1-c1nnn[nH]1.O=C(O)C(F)(F)F [Example 111, 3-((4-(6-(hydroxymethyl)pyridin-3-yl)-2-sulfamoyl-3-(1H-tetrazol-5-yl)phenyl)sulfonyl)azetidin-1-ium 2,2,2-trifluoroacetate] | 0.96 nM | 3.125 µM | 6.25 µM | 3.125 µM | 6.25 µM | 4.00 | 1.563 µM |  |  | 
NS(=O)(=O)c1c(S(=O)(=O)C2CNC2)ccc(-c2cccc3c2C(=O)NS3(=O)=O)c1-c1nn[nH]n1 [Example 249, 6-(Azetidin-3-ylsulfonyl)-3-(1,1-dioxido-3-oxo-2,3-dihydrobenzo[d]isothiazol-4-yl)-2-(2H-tetrazol-5-yl)benzenesulfonamide] | 0.322 nM |  |  |  | 12.5 µM | 2.00 | 6.25 µM | 6.25 µM | 25 µM | 6.25 µM
C[C@@H](CN)S(=O)(=O)c1ccc(-c2cccc3nc(N)[nH]c23)c(-c2nn[nH]n2)c1S(N)(=O)=O [Example 278, 3-(2-amino-3H-benzo[d]imidazol-4-yl)-6-((S)-1-aminopropan-2-ylsulfonyl)-2-(2H-tetrazol-5-yl)benzenesulfonamide] | 0.365 nM |  |  |  | 1.563 µM | 2.00 | 0.7813 µM | 0.3906 µM | 1.563 µM | 0.7813 µM
Nc1nc2cc(F)cc(-c3ccc(S(=O)(=O)C4CNC4)c(S(N)(=O)=O)c3-c3nnn[nH]3)c2[nH]1 [Example 296, 3-(2-amino-5-fluoro-1H-benzo[d]imidazol-7-yl)-6-(azetidin-3-ylsulfonyl)-2-(1H-tetrazol-5-yl)benzenesulfonamide] | 0.227 nM |  |  |  | 0.7813 µM | 1.00 | 0.7813 µM | 0.5859 µM | 1.172 µM | 0.7813 µM
Nc1nc2nccc(-c3ccc(S(=O)(=O)C4CNC4)c(S(N)(=O)=O)c3-c3nnn[nH]3)c2[nH]1 [Example 302] | 9.99 nM |  |  |  | 200 µM | 16.00 | 12.5 µM | 3.125 µM | 6.25 µM | 12.5 µM
NCCS(=O)(=O)c1ccc(-c2ccnc3nc(N)[nH]c23)c(-c2nnn[nH]2)c1S(N)(=O)=O [Example 303, 3-(2-amino-1H-imidazo[4,5-b]pyridin-7-yl)-6-((2-aminoethyl)sulfonyl)-2-(1H-tetrazol-5-yl)benzenesulfonamide] | 11.3 nM |  |  |  | 100 µM | 32.00 | 3.125 µM | 3.125 µM | 3.125 µM | 6.25 µM
